# Experimental data taken from patent US11345694B2, “Antibacterial compounds” (DISCUVA LTD., priority 2017, dated 2022).
# pIC50: −log10 of the molar value.
# Experiments:
# [1] = tested on: Staphylococcus aureus ATCC 35556 (SA); assay: MIC broth microdilution; type: cell-based; settings: ATCC35556
# Summary of the method: (§1)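 CLSI M07 broth microdilution; cation-adjusted MH broth; 2-fold series, final 0.39-200 μM, ≤2% DMSO final; 37° C, ambient atmosphere, 20-24 h. MIC = lowest conc. with no growth.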
# [2] = tested on: Escherichia coli K12 (EC); assay: MIC broth microdilution; type: cell-based
# Summary of the method: as §1
# [3] = tested on: Pseudomonas aeruginosa ATCC 33359 (PA); assay: MIC broth microdilution; type: cell-based; settings: ATCC33359
# Summary of the method: as §1
# [4] = tested on: Klebsiella pneumoniae ATCC 10031 (KP2); assay: MIC broth microdilution; type: cell-based; settings: ATCC10031
# Summary of the method: (§2)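 CLSI M07-A10 broth microdilution against planktonic cells, two-fold serial compound dilutions spanning 0.39-200 μM final, DMSO at most 2% final. Cation-adjusted Müller-Hinton broth, 37° C, ambient air; MIC taken as lowest concentration inhibiting growth after 20-24 hour incubation.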
# [5] = tested on: Acinetobacter baumannii ATCC 17978 (AB); assay: MIC broth microdilution; type: cell-based; settings: ATCC17978
# Summary of the method: as §1
# [6] = tested on: human hepatocarcinoma cell line ATCC HB-8065 (HepG2); assay: Human cell viability (CellTiter-Glo); type: cell-based; settings: Homo sapiens; HepG2 cells, 24 h incubation, CellTiter-Glo luminescence, 0.2-100 μM; read-out: IC50 values against the HepG2 cell line
# Summary of the method: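 HepG2 cells were seeded at 20,000 cells/well in MEM with 10% FBS and, after 24 h, exposed for 24 h at 37° C. to two-fold dilutions (final 0.2-100 μM) in MEM with 1% FBS and 1% DMSO. Viability was read by CellTiter-Glo luminescence, with IC50 from a 4-parameter logistic fit.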
# [7] = tested on: E. coli NCTC 13441 (UPEC); assay: MIC broth microdilution; type: cell-based, Escherichia coli; settings: Escherichia coli, NCTC13441
# Summary of the method: as §1
# [8] = tested on: K. pneumoniae NCTC 13438 (KP1); assay: MIC broth microdilution; type: cell-based, Klebsiella pneumoniae; settings: Klebsiella pneumoniae, NCTC13438
# Summary of the method: as §2
SMILES,MIC [1],MIC [2],MIC [3],MIC [4],MIC [5],pIC50 [6],MIC [7],MIC [8]
"Nc1nc(-c2ccc3c(c2)NCCO3)c(-c2ccnc(F)c2)[nH]1 [Example 47, 4-(3,4-Dihydro-2H-benzo[b][1,4]oxazin-6-yl)-5-(2-fluoropyridin-4-yl)-1H-imidazol-2-amine]",> 100 µM,1 to 10 µM,> 100 µM,≤ 1 µM,> 100 µM,< 4.00,1 to 10 µM,10 to 100 µM
"Nc1cc(-c2[nH]c(N)nc2-c2ccc3c(c2)CCO3)ccn1 [Example 8, 4-(2-Amino-4-(2,3-dihydrobenzofuran-5-yl)-1H-imidazol-5-yl)pyridin-2-amine]",> 100 µM,≤ 1 µM,> 100 µM,≤ 1 µM,> 100 µM,< 4.00,≤ 1 µM,10 to 100 µM
"Cc1cc(-c2[nH]c(N)nc2-c2ccc3c(c2)NCCCO3)ccn1 [Example 48, 5-(2-Methylpyridin-4-yl)-4-(2,3,4,5-tetrahydrobenzo[b][1,4]oxazepin-7-yl)-1H-imidazol-2-amine]",> 100 µM,1 to 10 µM,> 100 µM,≤ 1 µM,> 100 µM,< 4.00,1 to 10 µM,10 to 100 µM
"Nc1nc(-c2ccc3c(c2)OCCO3)c(-c2cc[nH]c(=O)c2)[nH]1 [Example 18, 4-(2-Amino-4-(2,3-dihydrobenzo[b][1,4]dioxin-6-yl)-1H-imidazol-5-yl)pyridin-2(1H)-one]",> 100 µM,10 to 100 µM,> 100 µM,1 to 10 µM,> 100 µM,< 4.00,10 to 100 µM,> 100 µM
"Cc1cc(-c2[nH]c(N)nc2-c2ccc(O)c(O)c2)ccn1 [Example 71, 4-(2-Amino-5-(2-methylpyridin-4-yl)-1H-imidazol-4-yl)benzene-1,2-diol]",> 100 µM,10 to 100 µM,> 100 µM,1 to 10 µM,> 100 µM,< 4.00,10 to 100 µM,> 100 µM

# Results, then the compound that gave them:
MIC [1],MIC [2],MIC [3],MIC [4],MIC [5],pIC50 [6],MIC [7],MIC [8],SMILES
> 100 µM,1 to 10 µM,> 100 µM,≤ 1 µM,> 100 µM,< 4.00,1 to 10 µM,10 to 100 µM,"CCOc1ccc(-c2[nH]c(N)nc2-c2ccnc(C)c2)cc1F [Example 17, 5-(4-Ethoxy-3-fluorophenyl)-4-(2-methylpyridin-4-yl)-1H-imidazol-2-amine]"
> 100 µM,10 to 100 µM,> 100 µM,≤ 1 µM,> 100 µM,< 4.00,1 to 10 µM,10 to 100 µM,"Cc1cc(-c2nc(N)[nH]c2-c2ccc(O)c(F)c2)ccn1 [Example 15, 4-(2-Amino-4-(2-methylpyridin-4-yl)-1H-imidazol-5-yl)-2-fluorophenol]"
> 100 µM,≤ 1 µM,> 100 µM,≤ 1 µM,> 100 µM,< 4.00,≤ 1 µM,1 to 10 µM,"Nc1nc(-c2ccc3c(c2)CCO3)c(-c2ccncc2)[nH]1 [Example 38, 4-(2,3-Dihydrobenzofuran-5-yl)-5-(pyridin-4-yl)-1H-imidazol-2-amine]"
